Results on 21 molecules are retold here after patent US20020037872A1, “N6 heterocyclic 5' modified adenosine derivatives” (CV Therapeutics, Inc., priority 1999, published 2002).

Molecules are shown by their SMILES. Like-named read-outs stand apart in the source and are kept apart here.

For test [1], the target named is T1, A1 adenosine receptor (Mesocricetus auratus, UniProt A0A1U8BVR4).
T1 construct: endogenous in cells; host or cells: DDT1 (DDT1 MF-2) hamster vas deferens smooth muscle cells
T1 sequence (A0A1U8BVR4 1-326): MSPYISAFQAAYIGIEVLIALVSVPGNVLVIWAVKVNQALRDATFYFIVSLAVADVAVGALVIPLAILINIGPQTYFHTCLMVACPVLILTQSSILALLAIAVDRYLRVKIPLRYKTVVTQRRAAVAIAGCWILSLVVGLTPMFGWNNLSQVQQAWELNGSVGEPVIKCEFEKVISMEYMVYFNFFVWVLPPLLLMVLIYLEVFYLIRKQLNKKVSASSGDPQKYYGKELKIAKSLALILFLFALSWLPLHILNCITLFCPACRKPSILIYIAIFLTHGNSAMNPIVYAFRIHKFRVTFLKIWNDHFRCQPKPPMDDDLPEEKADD
The test is described as follows: [35S]GTPγS binding assay, A1-agonist stimulated. The following applies: agonist stimulated [35S]GTPγS binding, CPA = 100%. The class given is biochemical, hamster. On the procedure:
(§1) Attached cells were washed twice with HBSS (2×10 ml), scraped free of the plate with the aid of a rubber policeman in 5 ml of 50 mM Tris-HCI buffer pH 7.4 at 4° C. and the suspension homogenized for 10 s. The suspension was then centrifuged at 27,000×g for 10 min. The pellet was resuspended in homogenization buffer by vortexing and centrifuged as described above. The final pellet was resuspended in 1 vol of 50 mM Tris-HCI buffer pH 7.4 containing 5 mM MgCl2 for A1 AdoR assays. For the [^35S]GTPγS binding assay the final pellet was resuspended in 50 mM Tris-HCI pH 7.4 containing 5 mM MgCl2, 100 mM NaCl and 1 mM dithiothreitol. This membrane suspension was then placed in liquid nitrogen for 10 min, thawed and used for assays. The protein content was determined by the method of Bradford (1976) using bovine serum albumin as standard.
A1-agonist stimulated [^35S]GTPγS binding was determined by a modification of the method described by Giersckik et al. (1991) and Lorenzen et al. (1993). […] Nonspecific binding was determined by the addition of 10 μM GTPγS. […] Previous reports have shown that agonist stimulated [^35S]GTPγS binding was dependent on the presence of GDP (Gierschik et al., 1991; Lorenzen et al., 1993; Traynor & Nahorski, 1995). […] In saturation experiments, 0.5 nM [^35S]GTPγS was incubated with 0.5-1000 nM GTPγS. At the end of the incubation, each suspension was filtered and the retained radioactivity determined as described above.

In test [2] the target is T1, A1 adenosine receptor. The test is described as follows: cAMP assay (SPA) in DDT1 cells, forskolin-induced cAMP. In kind it is cell-based, hamster. The following applies: normalized to full agonist CPA, 5 μM forskolin, 50 μM rolipram; for Emax: 10 min. The method, then:
A scintillation proximity assay (SPA) using rabbit antibodies directed at cAMP using an added tracer of adenosine 3′,5′-cyclic phosphoric acid 2′-O-succinyl-3-[^125I]iodotyrosine methyl ester and fluoromicrospheres containing anti-rabbit specific antibodies as described by Amersham Pharmacia Biotech (Biotrak cellular communication assays). Briefly, DDT1 cells were cultured in clear bottomed 96 well microtiter plates with opaque wells at concentrations between 10^4 to 10^6 cells per well in 40 μl of HBSS at 37° C. (5% CO2 and 95% humidity). The partial or full A1 agonists (5 μl) of this invention were incubated at various concentrations with the DDT1 cells in the presence of rolipram (50 μM), and 5 μM forskolin for 10 min at 37° C. The cells were immediately lysed by treatment 5 μl of 10% dodecyltrirnethylammonium bromide followed by shaking using rnicroplate shaker. After incubation of the plate for 5 minutes, an imnuunoreagent solution (150 μl containing equal volumes of tracer, antiserum, and SPA fluorospheres) was added to each well followed by sealing the plate. After 15-20 h at 23° C., the amount of bound [^125] cAM to the fluoromicrospheres was determined by counting in a microtitre plate scintillation counter for 2 minutes. Comparison of counts with standard curves generated for cAMP using a similar protocol afforded the cAMP present after cell lysis.

The target in a further test is T2, A1 receptor (Mesocricetus auratus, UniProt A0A1U8BVR4).
T2 construct: endogenous in cells; host or cells: DDT1 (DDT1 MF-2) hamster vas deferens smooth muscle cells
T2 sequence (A0A1U8BVR4 1-326): T1 sequence (A0A1U8BVR4 1-326)
The test is described as follows: Competitive binding assay, DDT1 cell membranes, [3H]CCPA. On the set-up: species or system hamster. Particulars: [3H]CCPA 2 nM. The method, then:
Cells were subcultured twice weekly by dispersion in Hank's Balanced Salt Solution (HBSS) without the divalent cations and containing 1 mM EDTA. The cells were then seeded in growth medium at a density of 1.2×10^5 cells per plate and experiments were performed 4 days later at approximately one day preconfluence.
as §1, with “assays.” for “assays. The protein content was determined by the method of Bradford (1976) using bovine serum albumin as standard.”
Competitive Binding Assay Pig striatum were prepared by homogenation in 50 mM Tris buffer (5× volume of tissue mass pH=7.4). After centrifilgation at 19,000 rpm for 25 minutes at 4° C., the supernatant was discarded, and the process was repeated twice. Compositions of this invention were assayed to determine their affinity for the A1 receptor in a pig striatum membrane prep or a DDT, membrane prep. Briefly, 0.2 mg of pig striatal membranes or DDT, cell membranes were treated with adenosine deaminase and 50 mM Tris buffer (pH=7.4) followed by mixing. To the pig membranes was added 2 μL of serially diluted DMSO stock solution of the compounds of this invention at concentrations ranging from 100 microM to 10 nM. The control received 2 microL of DMSO alone, then the antagonist [^3H] 8-cyclopentylxanthine (CPX) for pig striatum or the agonist [^3H] 2-chloro-6-cyclopentyladenosine (CCPA) for DDT, membranes in Tris buffer (50 mnM, pH of 7.4) was added to achieve a final concentration of 2 nM. After incubation at 23 C for 2 h, the solutions were filtered using a membrane harvester using multiple washing of the membranes (3×). The filter disks were counted in scintillation cocktail affording the amount of displacement of triated CPX or by the competitive binding compositions of this invention. In the case of the DDT1 cell membranes, some of the determinations of binding affinity (Ki) were made in the presence of Gpp(NH)p as noted in Table 1 (note: Gpp(NH)p shifts the receptor to a low affinity form). Greater than a 5 point curve was used to generate Ki's and the number of experiments is indicated in the column marked in Table 1 below.

Where [3] appears, read: in presence of Gpp(NH)p (low affinity form), read-out: Ki - DDT1 cell membrane In presence of Gpp (NH)p.
[4] abbreviates: DDT1 cell membranes, read-out: Ki-DDT1 cell membrane.

For `COC(=O)NCC1OC(n2cnc3c(N[C@@H]4CCOC4)ncnc32)C(O)C1O` (some centres unmarked) [Compound 18], the Emax is 77% on A1 adenosine receptor [1] and 86% at A1 adenosine receptor [2].
On to `O=C(NC1CCCC1OCc1ccccc1)OCC1OC(n2cnc3c(N[C@@H]4CCOC4)ncnc32)C(O)C1O` (some centres unmarked) [Compound 38], for which the GTPγS on A1 adenosine receptor [1] worked out at 1%. At A1 adenosine receptor [2], the cAMP is given as −25%.
As to `O=C(NC1CC1c1ccccc1)OC[C@H]1O[C@@H](n2cnc3c(N[C@@H]4CCOC4)ncnc32)[C@H](O)[C@@H]1O` (stereo partly drawn) [Compound 40, [(5-{6-[((3R)oxolan-3-yl)amino}purin-9-yl}(3S,2R,4R,5R)-3,4-dihydroxyoxolan-2-yl)methoxy]-N-(2-phenylcyclopropyl)carboxamide], the Emax on A1 adenosine receptor [1] was -6%; at A1 adenosine receptor [2], -14%.
Take `O[C@@H]1[C@H](O)[C@@H](COC(=S)N2CCCC2)O[C@H]1n1cnc2c(N[C@@H]3CCOC3)ncnc21` [Compound 52]: the GTPγS at A1 adenosine receptor [1] is on record as 77%. For the same molecule, the Ki at A1 receptor (setting [3]) was 1120 nM.
As for `CN(C)C(=S)OC[C@H]1O[C@@H](n2cnc3c(N[C@@H]4CCOC4)ncnc32)[C@H](O)[C@@H]1O` [Compound 53, 2-{6-[((3R)oxolan-3-yl)amino]purin-9-yl}(4S,2R,3R,5R)-5-{[(dimethylamino)thioxomethoxy]methyl}oxolane-3,4-diol], the Emax at A1 adenosine receptor [1] stood at 85%. Besides, the figures for the Ki at A1 receptor (setting [4]) and at A1 receptor (setting [3]) were 245 nM and 2110 nM, respectively.
With `OC1C(COC(=S)NCc2ccccc2)OC(n2cnc3c(N[C@@H]4CCOC4)ncnc32)C1O` (some centres unmarked) [Compound 54], the Emax at A1 adenosine receptor [1] amounted to 93%. In addition, at A1 receptor (setting [3]), the Ki was 229 nM.
In the case of `OC1C(COC(=S)NC2CCCCC2)OC(n2cnc3c(N[C@@H]4CCOC4)ncnc32)C1O` (some centres unmarked) [Compound 55], the Emax on A1 adenosine receptor [1] is 82%. The Ki came out at 252 nM on A1 receptor (setting [4]) and 962 nM on A1 receptor (setting [3]).
For the molecule `OC1C(COC(=S)NC2CCCC2OCc2ccccc2)OC(n2cnc3c(N[C@@H]4CCOC4)ncnc32)C1O` (some centres unmarked) [Compound 57], the Emax on A1 adenosine receptor [1] is 67%. In addition, on A1 adenosine receptor [2], the cAMP was determined as 73%.
On to `OC1C(COC(=S)NC2CCC2)OC(n2cnc3c(N[C@@H]4CCOC4)ncnc32)C1O` (stereo partly drawn) [Compound 58, 2-{1[((3)oxolan-3-yl)amino]purin-9-yl}(4S,2R,3R,5R)-5-{[(cyclobutylamino)thioxomethoxy]methyl}oxolane-3,4-diol], for which the Emax on A1 adenosine receptor [1] was found to be 79%; on A1 adenosine receptor [2], 78%.
In the same order, the values of `OC1C(COC(=S)NC2CC2)OC(n2cnc3c(N[C@@H]4CCOC4)ncnc32)C1O` (some centres unmarked) [Compound 59] are 82% and 115%.
`C=CCNC(=S)OCC1OC(n2cnc3c(N[C@@H]4CCOC4)ncnc32)C(O)C1O` (stereo partly drawn) [Compound 60, 2-{6-[((3R)oxolan-3-yl)amino]purin-9-yl}(4S,2R,3R,5R)-5-{[(prop-2-enylaminio)thioxomethoxy]methyl}oxolane3,4diol]: the Emax at A1 adenosine receptor [1] is 77%. Besides, the Ki at A1 receptor (setting [3]) worked out at 239 nM.
For the molecule `OC1CCCC1NC(=S)OCC1OC(n2cnc3c(N[C@@H]4CCOC4)ncnc32)C(O)C1O` (some centres unmarked) [Compound 63], the Emax came to 100% on A1 adenosine receptor [1] and 115% on A1 adenosine receptor [2].
On A1 adenosine receptor [1], `OC1CCCC1NC(=S)OCC1OC(n2cnc3c(N[C@@H]4CCOC4)ncnc32)C(O)C1O` (some centres unmarked) [Compound 64] registered a GTPγS of 99%. Besides, on A1 adenosine receptor [2], the cAMP is 110%.
On to `O=C(NC1CCCC1C(=O)O)OCC1OC(n2cnc3c(N[C@@H]4CCOC4)ncnc32)C(O)C1O` (some centres unmarked) [Compound 65], for which the Emax on A1 adenosine receptor [1] was 81%; on A1 adenosine receptor [2] it was 95%.
Regarding `O=C(O)CCNC(=O)OCC1OC(n2cnc3c(N[C@@H]4CCOC4)ncnc32)C(O)C1O` (some centres unmarked) [Compound 67], the Emax at A1 adenosine receptor [1] came to 59%. At A1 receptor (setting [4]), the Ki is 2220 nM.
Turning to `O=C(NCC1OC(n2cnc3c(N[C@@H]4CCOC4)ncnc32)C(O)C1O)OC1CCCC1` (some centres unmarked) [Compound 70], the Emax is 76% on A1 adenosine receptor [1] and 79% on A1 adenosine receptor [2].
Turning to `COC(=S)NCC1OC(n2cnc3c(N[C@@H]4CCOC4)ncnc32)C(O)C1O` (some centres unmarked) [Compound 71], the figures for the Emax on A1 adenosine receptor [1] and at A1 adenosine receptor [2] were 98% and 94%, respectively.
As for `O=C(NC1CCCC1)SCC1OC(n2cnc3c(NC4CCOC4)ncnc32)C(O)C1O` [Compound 73, [(5-{6-[((3R)oxolan-3-yl)amino]purin-9-yl}(2S,3S,4R,5R)3,4-dihydroxyoxolan-2-yl)methythio]-N-cyclopentylcarboxamide], on A1 adenosine receptor [1], the Emax came to 109%. For the same molecule, on A1 receptor (setting [4]), the Ki was 183 nM.
The like results for `O[C@@H]1[C@H](O)[C@@H](CSC(=S)NC2CCCC2)O[C@H]1n1cnc2c(N[C@@H]3CCOC3)ncnc21` [Compound 75, 2-{6-[((3R)oxolan-3-yl)amino]purin-9-yl}(4S,5S,2R,3R)-5-{[(cyclopentylamino)thioxomethylthio]methyl}oxolane-3,4-diol] were, in that order, 91% and 62 nM.
The like results for `CNC(=S)NC[C@H]1O[C@@H](n2cnc3c(N[C@@H]4CCOC4)ncnc32)[C@H](O)[C@@H]1O` [Compound 77, 2-{6[((3R)oxolan-3-yl)amino]purin-9-yl}(4S,2R,3R,5R)5-({[(methylamino)thioxomethyl]amino}methyl)oxolane-3,4diol] were, in that order, 101% and 113 nM.
The like results for `OC1C(CNC(=S)NC2CCCC2)OC(n2cnc3c(NC4CCOC4)ncnc32)C1O` [Compound 78, 2-{6-[((3R)oxolan-3-yl)amino]purin-9-yl}(4S,2R,3R,5R)-5-({[(cyclopentylamnino)thioxomethyl]amino}methyl)oxolane3,4diol] were, in that order, 95% and 357 nM.
